Experimental data published in US10494384B2, “Urea peptoid boric acid compound, pharmaceutical composition thereof, preparation method therefor, and uses thereof” (Peking University, priority 2015, dated 2019).
Where two headings read alike, the source gives them in different places.

What was measured:
[1] = target: T1, 20S proteasome extracted from rat liver (PGPH) (Rattus norvegicus, UniProt P28073+Q9JHW0); assay: inhibition of 20S proteasome, PGPH activity (fluorescent peptide); type: biochemical; conditions: for inhibition at 0.2 µM / inhibition at 2 µM / inhibition at 20 µM: rat liver 20S proteasome, 37° C., 1 h, read-out: inhibition rates (%) PGPH
T1 construct: 20S proteasome extracted from rat liver; from tissue; host or cells: rat liver
Method: (§1) 1 μg of 20S proteasome extracted from rat liver was incubated with a 100 μL solution containing various concentrations of the present compounds, 50 μM fluorescent peptides and 20 mM Tris-HCl at 37° C. for 1 h, respectively. […] 0.1% DMSO was used as a solvent control. Compared with the fluorescence of solvent control, an inhibition rate or IC50 value was calculated.

[2] = target: T2, 20S proteasome extracted from rat liver (CT-L) (Rattus norvegicus, UniProt P18421+P28075); assay: inhibition of 20S proteasome, CT-L activity (fluorescent peptide); type: biochemical; conditions: for inhibition at 0.2 µM / inhibition at 2 µM / inhibition at 20 µM: rat liver 20S proteasome, 37° C., 1 h, read-out: inhibition rates (%) CT-L
T2 construct: 20S proteasome extracted from rat liver; from tissue; host or cells: rat liver
Method: as §1

[3] = target: T3, 20S proteasome extracted from rat liver (T-L) (Rattus norvegicus, UniProt P40112+Q9JHW0); assay: inhibition of 20S proteasome, T-L activity (fluorescent peptide); type: biochemical; conditions: for inhibition at 0.2 µM / inhibition at 2 µM / inhibition at 20 µM: 37° C., 1 h, read-out: inhibition rates (%) T-L
T3 construct: 20S proteasome extracted from rat liver; from tissue; host or cells: rat liver
Method: as §1

MCF-7, breast cancer = assay: preliminary anti-tumor screening in vitro, SRB method; type: cell-based; conditions: Homo sapiens, read-out: inhibition rates (%) MCF-7; for inhibition at 0.1 µM: MCF7, 0.1 μM; for inhibition at 1 µM: MCF7, 1 μM; for inhibition at 10 µM: MCF7, 10 μM
Method: (§2) The test methods used in this test example are routine methods for anti-tumor activities test in pharmaceutical area, for example, referring to the following reference: (J. Immunol Method, 1983, 65, 55).
(§3) Test models: A: MTT method (Hela, human cervical carcinoma); B: SRB method (BGC-823, […]); C: SRB method (MCF-7, breast cancer); D: SRB method (A549, human lung cancer); E: SRB method (PC3M1E8, prostate cancer).
(§4) Inhibition rates of the compounds were measured under concentrations of 0.1 μM, 1 μM or 10 μM.

A549, human lung cancer = assay: as above; type: cell-based; conditions: read-out: inhibition rates (%) A549
Method: as §2, §3, §4

BGC-823, liver cancer = assay: as above; type: cell-based; conditions: Homo sapiens, read-out: inhibition rates (%) BGC-823
Method: as §2, §3, §4

[4] = tested on: Hela, human cervical carcinoma; assay: preliminary anti-tumor screening in vitro, MTT method; type: cell-based; conditions: read-out: inhibition rates (%) Hela
Method: as §2, §3, §4

Row | inhibition at 0.2 µM [1] [%] | inhibition at 2 µM [1] [%] | inhibition at 20 µM [1] [%] | inhibition at 0.2 µM [2] [%] | inhibition at 2 µM [2] [%] | inhibition at 20 µM [2] [%] | inhibition at 0.2 µM ([3]; rat liver 20S proteasome) [%] | inhibition at 2 µM ([3]; rat liver 20S proteasome) [%] | inhibition at 20 µM ([3]; rat liver 20S proteasome) [%] | Compound | IC50 [1] [nM] | IC50 [2] [nM] | IC50 [3] [µM] | inhibition at 0.1 µM (MCF-7, breast cancer) [%] | inhibition at 1 µM (MCF-7, breast cancer) [%] | inhibition at 10 µM (MCF-7, breast cancer) [%] | inhibition at 0.1 µM (A549, human lung cancer) [%] | inhibition at 1 µM (A549, human lung cancer) [%] | inhibition at 10 µM (A549, human lung cancer) [%] | inhibition at 0.1 µM (BGC-823, liver cancer) [%] | inhibition at 1 µM (BGC-823, liver cancer) [%] | further results
1 | – | – | – | – | – | – | – | – | – | Cc1cccc(CNC(=O)N[C@@H](Cc2ccccc2)C(=O)N[C@@H](CC(C)C)B(O)O)c1C [Example 30, N-L-phenylalanyl-L-leucine borate-N′-2,3-dimethyl-benzylamine-urea] | 130 | 4 | 0.34 | – | – | – | – | – | – | – | – | –
2 | 8.58 | 62.5 | 96.9 | 47.3 | 90.9 | 95.6 | 0.355 | 29.3 | 62 | CC(C)C[C@H](NC(=O)CNC(=O)Nc1cccc(OCc2ccccc2)c1)B(O)O [Example 21, N-glycyl-L-leucine borate-N′-(3-benzyloxy-phenylamine)-urea] | – | – | – | 5.41 | 9.64 | 24.2 | 7.42 | 25.2 | 41.4 | 0.38 | 2.21 | inhibition at 10 µM (BGC-823, liver cancer): 23.1%; inhibition at 0.1 µM [4]: 9.87%; inhibition at 1 µM [4]: 12.9%; inhibition at 10 µM [4]: 29.9%
3 | 9.76 | 73.2 | 96.7 | 63.3 | 93.4 | 95.8 | -7.93 | 34.7 | 67.8 | CC(C)C[C@H](NC(=O)N[C@@H](Cc1ccccc1)C(=O)N[C@@H](CC(C)C)C(=O)Nc1cnccn1)B(O)O [Example 12, N-L-leucine borate-N′-(pyrazin-2-ylcarbamoyl)-L-leucyl-L-phenylalanine-urea] | – | – | – | 1.77 | 26.3 | 50.8 | 1.55 | 45.5 | 69.7 | 6.01 | 36.3 | inhibition at 10 µM (BGC-823, liver cancer): 50.2%; inhibition at 0.1 µM [4]: 12%; inhibition at 1 µM [4]: 35%; inhibition at 10 µM [4]: 46%
4 | 12.8 | 32.6 | 81 | 5.79 | 52.8 | 92.5 | -8.06 | -5.63 | 25.2 | CC(C)C[C@H](NC(=O)N[C@@H](CC(C)C)C(=O)N[C@@H](CC(C)C)C(=O)Nc1cnccn1)B(O)O [Example 11, N-L-leucine borate-N′-(pyrazin-2-ylcarbamoyl)-L-leucyl-L-leucine-urea] | – | – | – | 4.81 | 7.23 | 16.1 | -4.49 | 0.81 | 26.6 | 6.32 | 4.58 | inhibition at 10 µM (BGC-823, liver cancer): 13.1%; inhibition at 0.1 µM [4]: 2.45%; inhibition at 1 µM [4]: 6.1%; inhibition at 10 µM [4]: 19.2%
5 | – | – | – | – | – | – | – | – | – | CC(C)C[C@H](NC(=O)[C@H](Cc1ccccc1)NC(=O)N1CCc2ccccc2C1=O)B(O)O [Example 37, N-(1-oxo-1,2,3,4-dihydroisoquinolin-2-ylformyl)-L-phenylalanyl-L-leucine borate] | 1240 | 660 | – | – | – | – | – | – | – | – | – | IC50 ([3]; rat liver 20S proteasome, read-out: IC50 (μM) T-L): > 20 µM
6 | 19 | 79.8 | 96 | -4.19 | 47.8 | 89 | -12.3 | -5.93 | 17.4 | CC(C)C[C@H](NC(=O)N[C@H](Cc1ccccc1)C(=O)Nc1cnccn1)B(O)O [Example 10, N-L-leucine borate-N′-(pyrazin-2-ylcarbamoyl)-D-phenylalanine-urea] | – | – | – | 8.1 | 12.7 | 16 | 3.45 | 14.6 | 25 | 4.44 | 7.38 | inhibition at 10 µM (BGC-823, liver cancer): 16.4%; inhibition at 0.1 µM [4]: 11.8%; inhibition at 1 µM [4]: 14.8%; inhibition at 10 µM [4]: 27%
7 | 3.75 | 8.57 | 94.5 | 10.5 | 87.3 | 95.8 | -3.77 | 10.5 | 57.3 | CC(C)C[C@H](NC(=O)[C@H](Cc1ccccc1)NC(=O)Nc1cnccn1)B(O)O [Example 17, N-L-phenylalanyl-L-leucine borate-N′-(pyrazin-2-ylamine)-urea] | – | – | – | 8.29 | 26.2 | 37.6 | 5.46 | 40.9 | 66 | 7.89 | 27.1 | inhibition at 10 µM (BGC-823, liver cancer): 52.7%; inhibition at 0.1 µM [4]: 12.1%; inhibition at 1 µM [4]: 34.6%; inhibition at 10 µM [4]: 51.5%
8 | – | – | – | – | – | – | – | – | – | CC(C)C[C@H](NC(=O)[C@H](Cc1ccccc1)NC(=O)NCc1ccco1)B(O)O [Example 33, N-L-phenylalanyl-L-leucine borate-N′-furan-2-ylmethylamine-urea] | 80 | 20 | 5.32 | – | – | – | – | – | – | – | – | –
9 | 17.4 | 66.3 | 93.8 | -0.67 | 44.7 | 86.8 | -3.92 | 2.41 | 27.2 | CC(C)C[C@H](NC(=O)N[C@@H](Cc1ccccc1)C(=O)Nc1cnccn1)B(O)O [Example 6, N-L-leucine borate-N′-(pyrazin-2-ylcarbamoyl)-L-phenylalanine-urea] | – | – | – | 0.8 | 1.9 | 6.05 | -6.94 | -3.91 | 7.01 | 4.88 | 4.4 | inhibition at 10 µM (BGC-823, liver cancer): 8.98%; inhibition at 0.1 µM [4]: 1.74%; inhibition at 1 µM [4]: 4.43%; inhibition at 10 µM [4]: 16.9%
10 | – | – | – | – | – | – | – | – | – | CC(C)C[C@H](NC(=O)[C@H](Cc1ccccc1)NC(=O)NCc1cnccn1)B(O)O [Example 2, N-L-phenylalanyl-L-leucine borate-N′-pyrazin-2-ylmethylamine-urea] | 790 | 50 | 11.4 | – | – | – | – | – | – | – | – | –
11 | – | – | – | – | – | – | – | – | – | CC(C)C[C@H](NC(=O)[C@H](Cc1ccccc1)NC(=O)NCc1cc(Cl)ccc1Cl)B(O)O [Example 31, N-L-phenylalanyl-L-leucine borate-N′-2,5-dichloro-benzylamine-urea] | 480 | 40 | 0.53 | – | – | – | – | – | – | – | – | –
12 | – | – | – | – | – | – | – | – | – | CC(C)C[C@H](NC(=O)[C@H](Cc1ccccc1)NC(=O)NCCc1ccccc1)B(O)O [Example 25, N-L-phenylalanyl-L-leucine borate-N′-phenylethylamine-urea] | 240 | 20 | 1.05 | – | – | – | – | – | – | – | – | –
13 | – | – | – | – | – | – | – | – | – | CC(C)C[C@H](NC(=O)[C@H](Cc1ccccc1)NC(=O)NCc1cccc([N+](=O)[O-])c1)B(O)O [Example 36, N-L-phenylalanyl-L-leucine borate-N′-3-nitro-benzylamine-urea] | 140 | 3 | 0.19 | – | – | – | – | – | – | – | – | –
14 | – | – | – | – | – | – | – | – | – | CC(C)C[C@H](NC(=O)[C@H](Cc1ccccc1)NC(=O)N(C)Cc1ccccc1)B(O)O [Example 29, N-L-phenylalanyl-L-leucine borate-N′—(N-methyl-benzylamine)-urea] | – | 2 | 0.19 | – | – | – | – | – | – | – | – | –
